Test results taken from paper PMC6272295, “In Vitro Neuroprotective Activities of Compounds from Angelica shikokiana Makino” (Molecules, 2015).
Like-named read-outs stand apart in the source and are kept apart here.

Tests used:
[1] = Scavenging of hydroxyl radical, 2-deoxyribose degradation assay; settings: for % Inhibition of deoxyribose degradation, Non Site-Specific: at 300 µM (maximum solubility in phosphate buffer)
Protocol: The inhibitory effect of bioactive compounds on deoxyribose degradation was determined by measuring the competition between deoxyribose and bioactive compounds for the hydroxyl radicals (^.OH) generated from the Fe^3+/ascorbate/EDTA/H2O2 system (referred to non-site-specific assay; the major activity measured is ^.OH scavenging) or an Fe^3+/ascorbate/H2O2 system (referred to as a site-specific assay; major activity measured is metal chelation). Both assays depend on the formation of a highly reactive hydroxyl radical, OH, by the interaction of iron ions with H2O2 through Fenton’s reaction. […] This assay was performed as previously described. Different concentrations of tested compounds were dissolved in 400 µL phosphate buffer (0.2 M, pH 7.4). Then, 50 µL of deoxyribose (60 mM), 50 µL of Na2EDTA (2 mM), 50 µL of FeCl3 (3.2 mM), 50 µL of H2O2 (60 mM) and 50 µL of ascorbic acid (2 mM) were added, and the total volume of the reaction mixture was adjusted to 1 mL with buffer. After water-bath incubation at 50 °C for 25 min, the reaction was terminated by 250 µL of trichloroacetic acid (10%, w/w). […] For site-specific hydroxyl-radical-scavenging activity, the reaction mixture was similar to the above method, except that EDTA was replaced by an equivalent volume of buffer.
IC50 values of isolated compounds in AChEI and scavenging of hydroxyl radical assays were calculated using Probit Analysis (SPSS Version 16.0 for Windows, SPSS Inc., Chicago, IL, USA) for five different concentrations in three independent experiments. Cell viability was expressed as a percentage of MTT reduction, assuming that the viability of cells treated with 1% DMSO as a negative control was 100%. […] All values are the mean ± SD of three independent experiments. Data were analyzed for statistical significance using one-way ANOVA, followed by Dunnet’s test as a post-hoc test with GraphPad Prism 5.0 software for Windows (Inc., San Diego, CA, USA).

[2] = target: T1, AChE from Electrophorus electricus (Electrophorus electricus, UniProt O42275); assay: biochemical; settings: Ellman's method; read-out: IC50 in the AChEI assay
T1 construct: purchased Sigma (St. Louis, MO, USA)
T1 sequence (O42275 24-633): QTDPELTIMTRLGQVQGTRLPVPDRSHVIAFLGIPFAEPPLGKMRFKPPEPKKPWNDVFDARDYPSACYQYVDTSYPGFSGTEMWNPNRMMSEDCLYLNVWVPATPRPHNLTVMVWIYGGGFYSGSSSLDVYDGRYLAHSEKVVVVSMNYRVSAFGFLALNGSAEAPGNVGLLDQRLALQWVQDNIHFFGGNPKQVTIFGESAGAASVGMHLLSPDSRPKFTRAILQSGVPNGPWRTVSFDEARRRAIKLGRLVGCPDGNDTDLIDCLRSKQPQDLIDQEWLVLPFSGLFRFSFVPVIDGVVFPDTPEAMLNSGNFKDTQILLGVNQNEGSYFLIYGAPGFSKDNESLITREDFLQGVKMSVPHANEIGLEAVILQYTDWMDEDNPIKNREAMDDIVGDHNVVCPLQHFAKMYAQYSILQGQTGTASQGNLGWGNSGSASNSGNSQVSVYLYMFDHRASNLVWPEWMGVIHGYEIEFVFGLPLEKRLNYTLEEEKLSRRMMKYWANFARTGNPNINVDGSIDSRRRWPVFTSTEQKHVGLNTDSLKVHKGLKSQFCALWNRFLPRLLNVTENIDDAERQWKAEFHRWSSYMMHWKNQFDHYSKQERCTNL
Protocol: AChEI activity was measured using Ellman’s method. AChE hydrolyzes the substrate ACTI into acetate and thiocholine. In a neutral and alkaline medium; thiocholine reacts with DTNB to give yellow colored 2-nitro-5-thiobenzoate, which can be detected spectrophotometrically at 405 nm. Briefly, in a 96-well plate, 25 µL of 15 mM ACTI, 125 µL of 3 mM DTNB in buffer B (50 mM Tris HCl, pH = 8, 0.1 M NaCl, 0.02 M MgCl2·6H2O), 50 µL of buffer A (50 mM Tris-HCl, PH 8, 0.1% BSA) and 25 µL of tested sample (dissolved in 25% DMSO) were mixed, and the absorbance was measured using a microplate reader (Biotek, Winooski, VT, USA) at 405 nm every 16 s ten times. Then, 25 µL of AChE (0.25 U/mL in buffer A) was added and the absorbance was measured ten times every 16 s. A solution of 25% DMSO was used as a negative control. Absorbance was plotted against time and enzyme activity was calculated from the slope of the line so obtained and expressed as a percentage compared to an assay using a buffer without any inhibitor. Fractions were tested at 400 µg/mL. To avoid any increase in absorbance due to the color of the compounds or spontaneous hydrolysis of the substrate, the absorbance before addition of the enzyme was subtracted from the absorbance after adding the enzyme.
IC50 values of isolated compounds in AChEI and scavenging of hydroxyl radical assays were calculated using Probit Analysis (SPSS Version 16.0 for Windows, SPSS Inc., Chicago, IL, USA) for five different concentrations in three independent experiments. Cell viability was expressed as a percentage of MTT reduction, assuming that the viability of cells treated with 1% DMSO as a negative control was 100%. Figures were built in Microsoft Excel 2010. All values are the mean ± SD of three independent experiments. Data were analyzed for statistical significance using one-way ANOVA, followed by Dunnet’s test as a post-hoc test with GraphPad Prism 5.0 software for Windows (Inc., San Diego, CA, USA).

neuro-2A cells [3] = assay: Protection against Aβ25-35-induced neurotoxicity (MTT); type: cell-based, Mouse; settings: for Protection against Aβ25-35: summary Table 4; for Protection against Aβ25-35: key: +: Weak activity; ++: Strong activity
Protocol: (§1) Neuro-2A cell line was maintained in Eagle’s Minimum Essential medium supplemented with 10% fetal bovine serum, 1% of 100× antibiotic—antimitotic agents (containing penicillin and streptomycin) in a humid atmosphere of 5% (v/v) CO2 and 95% (v/v) air at 37 °C. Neuro-2A cells were plated in 96-well cell culture plates at a density of 3 × 10^4 cells/well for H2O2 and intracellular ROS assays and 2.5 × 10^3 cells/well for the Aβ25-35-assay.
(§2) Cell viability was determined by MTT reduction assay. Briefly, after treatment with isolated compounds, the media was replaced by fresh one after washing the cells with 100 µL PBS and 20 µL of MTT (5 mg/mL) was added to each well. After 4 h incubation at 37 °C, the state of cells was checked under microscope to confirm either cytotoxicity in H2O2 and Aβ25-35 wells or protection in positive controls and isolated compounds ones. The supernatants were aspirated carefully, and 150 µL of DMSO was added to each well to dissolve the dark blue formazan crystals. The absorbance was measured using a microplate reader at 570 nm.
Similarly, the concentration of Aβ25-35 that decreased cell viability to about 50% was determined. […] So, the cells were incubated with different concentrations of the isolated compounds (6.25, 12.5, 25, 50 and 100 µM) and EGCG as a positive control for 3 h followed by Aβ25-35 treatment for 72 h.

Aβ25-35 = target: T2, Aβ25-35 (Homo sapiens, UniProt P05067); assay: Thioflavin T assay of Aβ25-35 aggregation; type: biochemical; settings: for effect on Th-T fluorescence (in words): 25-100 µM; for Decrease of ThT Fluorescence: summary Table 4; for decrease of Th-T fluorescence intensity: Aβ25-35 25 µM; for Decrease of ThT Fluorescence: key: +: Weak activity; ++: Strong activity
T2 construct: Aβ25-35 (25 µM) freshly prepared in PBS; purchased Sigma (St. Louis, MO, USA)
Protocol: Thioflavin T (ThT), abenzothiazole salt, is used to quantify misfolded protein aggregates and amyloid peptides. ThT is a non-fluorescent dye which, when it binds to amyloid rich aggregates, produces a fluorescent signal proportional to the quantity of amyloid aggregation. Aβ25-35 (25 µM) freshly prepared in PBS (50 mM, pH = 7.4) was incubated at 37 °C with or without different concentrations (100, 50, 25 µM) of isolated compounds at 37 °C and shaken at 300 rpm for 3 h. One hundred µL of each incubated sample was transferred to a 96-well plate, and five µM ThT was added. The ThT fluorescence was measured over 180 min at 10-min intervals at emission λ at 485 nm; and excitation λ at 442 nm using FlexStation 3 Microplate Reader (Molecular Devices, LLC, Sunnyvale, CA, USA), and data were managed by SoftMax Pro® 5.4.1 software. The samples were constantly shaken every 60 sec during the incubation. 1% DMSO and different concentrations of ECCG were taken as negative and positive controls, respectively. The area under the curve (AUC) was taken as indicative of fluorescence intensity. Fluorescence of samples and ThT without Aβ25-35 (sample blank) was detected and subtracted from the final AUC to prevent any interference.

[4] = system: intracellular ROS in Neuro-2A cells; assay: Scavenging of intracellular reactive oxygen species (Bes-H2O2-AC, DFF fluorescence); type: cell-based, Mouse; settings: summary Table 4; note: key: +: Weak activity; ++: Strong activity
Protocol: as §1
This assay was performed as previously described with some modifications. Briefly, Neuro-2A cells were seeded in 96-well Clear Fluorescence Black Plate (number 655090, Greiner Bio-one, Tokyo, Japan). Cells were treated with three different concentrations (25, 50, 100 µM) of the samples. After 2 h incubation, cells were subjected to oxidative stress using 600 µM of H2O2 for 30 min. The nucleus was stained by Hoechst 33342 (Dojindo, Kumamoto, Japan), and the amount of difluorofluorescein (DFF) released from the reaction of H2O2 and BES-H2O2-Ac was taken as an indication of the amount of intracellular H2O2 and ROS. Images of each well were acquired using an IN Cell Analyzer 1000 (GE Healthcare, Buckinghamshire, UK) using 360-nm (Hoechst 33342) and 480-nm (BES-H2O2-Ac) excitation filters and monitored through 460-nm and 535-nm emission filters, respectively. Developer software was used to analyze the images of Hoechst 33342 and BES-H2O2-Ac staining, and the resulting data were then applied to Spotfire Decision Site Client 8.2 software for visualizing the results.

neuro-2A cells [5] = assay: Protection against H2O2-induced neurotoxicity (MTT); type: cell-based, Mouse
Protocol: as §1, §2
H2O2 interacts with metals in the medium, producing highly cytotoxic hydroxyl radicals that induce neurotoxicity. So, active compounds are those that can scavenge free radicals and increase the cell viability. This assay was performed as previously described with slight modifications. Briefly, the concentration of H2O2 that decreased cell viability to about 50% was determined as follows: cells were cultured in a 96-well plate and after 24 h were further incubated with different concentrations of H2O2 (50, 100, 150, 200 µM) freshly prepared from 30% stock solution. After 24 h, cell viability was determined using the MTT reduction method. H2O2 at a concentration of 150 µM had the desired cytotoxicity and was used for the next step.

Compound	% Inhibition of deoxyribose degradation, Non Site-Specific [1] [%]	IC50 [2] [mM]	Protection against Aβ25-35 (neuro-2A cells [3])	effect on Th-T fluorescence (in words) (Aβ25-35)	Decrease of ThT Fluorescence (Aβ25-35)	neuroprotection against Aβ25-35 (in words) (neuro-2A cells [3]; at the highest concentration (100 µM))	IC50 ([1]; Fe3+/ascorbate/EDTA/H2O2 system, read-out: IC50 hydroxyl radical scavenging, Non Site-Specific) [mM]	IC50 ([1]; Fe3+/ascorbate/H2O2 system without EDTA, read-out: IC50 hydroxyl radical scavenging, Site-Specific) [mM]	IC50 ([1]; summary Table 4 (values of the non site-specific assay), read-out: Hydroxyl Radical Scavenging/IC50) [mM]	Intracellular ROS Scavenging [4]	neuroprotection against H2O2-induced neurotoxicity (in words) (neuro-2A cells [5]; 6.25-100 µM, H2O2 150 µM)	Protection against H2O2 (neuro-2A cells [5]; summary Table 4)	decrease of Th-T fluorescence intensity (Aβ25-35; 50 µM)	decrease of Th-T fluorescence intensity (Aβ25-35; 100 µM)
CC(=O)O[C@@H]1c2c(ccc3ccc(=O)oc23)OC(C)(C)[C@@H]1OC(=O)[C@@]1(C)O[C@H]1C [Isoepoxypteryxin (3), isoepoxypteryxin]	6 ± 1.4	0.327 ± 0.0034	++	decreased Th-T fluorescence in a dose-dependent manner	++									
C/C=C(/C)C(=O)O[C@@H]1[C@H](OC(C)=O)c2c(ccc3ccc(=O)oc23)OC1(C)C [Isopteryxin (4), isopteryxin]	10 ± 2.1	0.4759 ± 0.0015	+	weak activity	+	significant neuroprotection (p < 0.05)								
kaempferol-3-O-rutinoside [Kaempferol-3-O-rutinoside (14)]			++	decreased Th-T fluorescence in a dose-dependent manner	++		1.03 ± 0.0257	1.54 ± 0.0208	1.03 ± 0.0257	+	significant (p < 0.05) increase in cell viability at 100 µM	+	12% ±3.7%	33% ± 2.5%
